Data reported in US20230250182A1, “METHODS FOR TREATING CANCER OR VON-HIPPEL LINDAU DISEASE USING A COMBINATION OF A PD-1 ANTAGONIST, A HIF-2 ALPHA INHIBITOR, AND LENVATINIB OR A PHARMACEUTICALLY ACCEPTABLE SALT THEREOF” (Merck Sharp & Dohme LLC, priority 2020, published 2023).

Legend:
[1] = tested on: KPC-2838c3 cells; assay: VHL proficient mouse syngeneic pancreatic tumor model; assay type: in vivo, C57BL/6J mice; settings: for Final CRs (complete tumor regressions) / Final PRs (partial tumor regressions): 10 mice per group; for Final CRs (complete tumor regressions): CR = no observable tumor; for Final PRs (partial tumor regressions): PR = tumor volume lower than original size when treatment began; for TGI (tumor growth inhibition): Day 24, MK-6482 3 mg/kg BID oral, lenvatinib 10 mg/kg QD oral, anti-PD-1 10 mg/kg i.p. every 5 days
Description: Prior to treatment initiation, female C57BL/6J mice aged 7 weeks weighing between 18 to 21 grams were anesthetized and injected into the rear flank with 0.5×10^6 log-phase sub-confluent KPC-2838c3 cells. Ten (10) days later when the mean tumor volume of inoculated animals reached approximately 95 mm^3, mice were pair-matched into 8 treatment groups consisting of 10 mice per group. Treatment groups consisted of: 1) 0.5% methylcellulose (Vehicle)+Isotype mouse IgG1 antibody (mIgG1); 2) MK-6482+mIgG1; 3) Lenvatinib+mIgG1; 4) Vehicle+anti-mouse PD-1 IgG1 antibody; 5) MK-6482+anti-PD-1; 6) Lenvatinib+anti-PD-1; 7) MK-6482+Lenvatinib; 8) MK-6482+Lenvatinib+anti-PD-1. Vehicle and MK-6482 were orally gavage-dosed twice daily (BID) at 3 mg/kg body weight. Lenvatinib was orally dosed once daily (QD) at 10 mg/kg body weight. Isotype control, a mouse monoclonal antibody specific for adenoviral hexon of the isotype IgG1, and anti-PD-1 antibodies were dosed intraperitoneally every 5 days at 10 mg/kg body weight. Start of treatments was considered Day 0 and dosing based on schedules continued as described until Day 45. Caliper measurements of tumors and body weights were captured twice weekly. Statistical analyses were performed by one-way ANOVA with Tukey multiple comparison tests at the timepoints specified when treatment groups reached endpoints.
CRs were defined as no observable tumor whereas PRs were tumors whose volume was lower than the original tumor size when treatment began. There was no significant body weight loss or adverse events observed in any animals treated with the above therapies, indicating the treatments were well tolerated.

[2] = Phase 1 cross-over food-effect PK study of single dose MK-6482 in healthy volunteers; assay type: in vivo, human; settings: single dose of 120 mg, healthy female adult volunteers
[3] = Phase 2 open-label efficacy and safety study in VHL disease associated RCC; assay type: in vivo, human; settings: 120 mg QD, 61 participants with VHL disease associated RCC
Description: A Phase 2, open-label efficacy and safety study in participants with VHL disease associated RCC is ongoing. As of 6 Sep.

[4] = FIH Phase 1 study of tolerability, safety, PK and PD of MK-6482 in participants with advanced solid tumors; assay type: in vivo, human
Experimental: As of 6 Sep. […] 52 additional participants with advanced RCC were treated in an expansion cohort (Part 1B) at the clinical dose of 120 mg QD.

[5] = combined dose escalation and expansion cohorts
[6] = dose escalation (Part 1A) 20 to 240 mg QD and 120 mg BID

Row | SMILES | Final CRs (complete tumor regressions) [1] | Final PRs (partial tumor regressions) [1] | TGI (tumor growth inhibition) [1] [%] | delay of time to peak MK-6482 exposure, median difference (Fed-Fasted) [2] [h] | most common adverse event (AE) reported: headache [2] [%] | effect of high fat, high calorie meal on extent of MK-6482 exposure ([2]; fed vs fasted) | lowering of maximum plasma MK-6482 concentration by high fat, high calorie meal ([2]; fed vs fasted) | most common AE of ≥Grade 3 toxicity (reported by ≥5% of participants) [3] | Grade 3 event of hypoxia (DLT) ([4]; 120 mg BID cohort) | accumulation from Day 1 to Day 15 ([4]; 120 mg QD expansion cohort (Part 1B)) [fold] | Cmax ([4]; 120 mg QD expansion cohort (Part 1B), Day 15, read-out: mean steady state Cmax) [µM] | Grade 4 event of thrombocytopenia (DLT) ([4]; 240 mg QD cohort) | most common AEs (occurring in ≥20% of participants) [4, 5] | most common Grade 3 AEs (in ≥5% of participants) [4, 5] | MTD [4, 6] | treatment-related DLTs observed [4, 6] | Vd/F ([4]; human, in vivo) [L] | estimated CL/F ([4]; human, in vivo) [L/h] | Tmax ([4]; human, in vivo, participants with advanced solid tumors, oral, read-out: median tmax) [h] | exposure versus dose ([4]; participants with advanced solid tumors)
1 | COc1cc2nccc(Oc3ccc(NC(=O)NC4CC4)c(Cl)c3)c2cc1C(N)=O [Lenvatinib, 4-[3-chloro-4-(cyclopropylaminocarbonyl)aminophenoxy]-7-methoxy-6-quinolinecarboxamide] | 0/10 PRs, 0/10 CRs | 0/10 PRs, 0/10 CRs | 90 |  |  |  |  |  |  |  |  |  |  |  |  |  |  |  |  | 
2 | CS(=O)(=O)c1ccc(Oc2cc(F)cc(C#N)c2)c2c1[C@H](O)[C@H](F)[C@@H]2F [MK-6482, 3-[(1S,2S,3R)-2,3-difluoro-1-hydroxy-7-methylsulfonyl-indan-4-yl]oxy-5-fluoro-benzonitrile] | 0/10 PRs, 0/10 CRs | 0/10 PRs, 0/10 CRs | 16 | 2 | 12.5 | did not affect | approximately 35% | Fatigue | 1 | 1.5 | 4.67 | 1 | anemia, fatigue, dyspnea, nausea, and peripheral edema | anemia and hypoxia | not reached | 2 | 106 to 266 | 5.22 to 14.4 | 1 to 2.8 | exposure increased with dose
